Assay results published in patent publication US20250368686A1, “PEPTIDE DRUGS FOR S[…] D[…] BLOCKING HOMO- AND HETERO-DIMERIZATION OF OPIOID RECEPTORS” (OKINAWA INSTITUTE OF SCIENCE AND TECHNOLOGY SCHOOL …, priority 2022, published 2025).
Structures can show the parent of a compound that is named as a salt. Where two headings read alike, the source gives them in different places. Where no end group is shown, it is not given here.

Assays:
[1] = biological target: T1, DOR and MOR (DM) heterodimers (Rattus norvegicus, UniProt P33535); test: DM heterodimerisation, two-colour single-molecule imaging in CHO-K1 cells (colocalisation index, heterodimer lifetime); type: cell-based; details: for DM colocalisation, competition by expressed SNAPf-tagged TM peptides: CHO-K1 cells expressing DOR-mGFP, MOR-Halo and the TM peptide
T1 construct: expressed in transfected cells; host or cells: CHO-K1 cells stably co-expressing DOR and MOR
T1 sequence (P33535 whole entry, one chain of several): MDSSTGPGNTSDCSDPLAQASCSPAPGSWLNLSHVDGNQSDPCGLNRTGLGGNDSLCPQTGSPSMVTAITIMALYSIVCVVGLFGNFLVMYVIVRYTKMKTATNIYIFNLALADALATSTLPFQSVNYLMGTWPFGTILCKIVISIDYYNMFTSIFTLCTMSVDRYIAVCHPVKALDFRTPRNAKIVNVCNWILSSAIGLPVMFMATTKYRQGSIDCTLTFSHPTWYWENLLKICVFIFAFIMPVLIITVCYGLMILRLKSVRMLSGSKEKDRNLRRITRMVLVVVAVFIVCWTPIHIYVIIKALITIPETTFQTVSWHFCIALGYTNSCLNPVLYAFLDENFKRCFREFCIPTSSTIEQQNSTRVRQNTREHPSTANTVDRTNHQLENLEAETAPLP

[2] = test system: MOR; type: cell-based, rat; details: D- and K-cells
[3] = biological target: T2, MOR (Rattus norvegicus, UniProt P33535); type: cell-based; set-up: expressed in transfected cells; host or cells: CHO-K1 (A10, A13); T24 (A16); CHO-K1 stably expressing Gqi5 (A19); details: CHO-K1 cells, addition alone
T2 sequence (P33535 whole entry): as the sequence (P33535 whole entry, one chain of several) above

[4] = biological target: T2, MOR; type: cell-based; set-up: expressed in transfected cells; host or cells: CHO-K1 (A10, A13); T24 (A16); CHO-K1 stably expressing Gqi5 (A19); details: T24 cells, addition alone
[5] = biological target: T3, DOR (Rattus norvegicus, UniProt P33533); type: cell-based; set-up: fluorescent tag protein (not specified for this assay); expressed in transfected cells; host or cells: CHO-K1 (D cells, MD cells); details: for DOR internalisation, effect of agonist: 0.5 μM agonist, D cells and MD cells
T3 sequence (P33533 whole entry): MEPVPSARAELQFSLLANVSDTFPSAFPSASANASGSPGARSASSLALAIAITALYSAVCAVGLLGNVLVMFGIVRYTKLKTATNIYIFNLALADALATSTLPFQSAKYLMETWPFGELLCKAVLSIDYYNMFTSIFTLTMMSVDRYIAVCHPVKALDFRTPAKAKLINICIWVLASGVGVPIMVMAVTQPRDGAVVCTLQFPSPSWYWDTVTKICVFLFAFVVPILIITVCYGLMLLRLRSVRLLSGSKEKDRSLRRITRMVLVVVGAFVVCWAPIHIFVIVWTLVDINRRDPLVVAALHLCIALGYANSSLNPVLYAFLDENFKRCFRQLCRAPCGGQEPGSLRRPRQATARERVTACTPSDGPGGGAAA

[6] = biological target: T2, MOR; type: cell-based; set-up: fluorescent tag protein (not specified for this assay); expressed in transfected cells; host or cells: CHO-K1 (M cells, MD cells); for Ca2+ mobilisation CHO-K1 stably expressing Gqi5; details: 0.5 μM agonist; for MOR internalisation: 60-min observations
[7] = biological target: T2, MOR; type: cell-based; set-up: fluorescent tag protein (not specified for this assay); expressed in transfected cells; host or cells: CHO-K1 (M cells, MD cells); for Ca2+ mobilisation CHO-K1 stably expressing Gqi5
[8] = biological target: T3, DOR; type: cell-based; set-up: expressed in transfected cells; host or cells: CHO-K1 (A11, A14); T24 (A17); CHO-K1 stably expressing Gqi5 (A20); details: CHO-K1 cells, addition alone
[9] = biological target: T3, DOR; type: cell-based; set-up: expressed in transfected cells; host or cells: CHO-K1 (A11, A14); T24 (A17); CHO-K1 stably expressing Gqi5 (A20); details: T24 cells, addition alone
[10] = test system: T24 cells; test: LDH cytotoxicity assay in T24 cells; type: cell-based, human; details: 48-h exposure, 50, 100 and 200 μM
Method: (§1) Cytotoxicity was measured by subtracting LDH content in remaining viable cells from total LDH in untreated controls.

[11] = test system: hippocampal neurons; test: LDH cytotoxicity assay in primary culture of hippocampal neurons; type: cell-based; details: hippocampal neurons DIV8, DIV12, DIV14; 48, 96 and 144-hour exposures, 100 μM
Method: as §1
Treatments of neurons with Trition-100 (1%) and DMSO (10%) for 48 h were used as positive controls.

In the case of `C[C@@H](NC(=O)[C@@H](N)Cc1ccc(O)cc1)C(=O)NCC(=O)N(C)[C@@H](Cc1ccccc1)C(=O)NCCO` [DAMGO, [D-Ala^2, N-Mc-Phet, Gly^5-ol]-enkephalin acetate salt], the “DM heterodimer lifetime, effect of agonist” value ([1]; 0.5 μM agonist, within 5 min after addition) is reported as “prolonged”, the “DM colocalisation index, effect of agonist” value ([1]; 0.5 μM agonist, within 5 min after addition, agonist-bound MOR with DOR) is reported as “higher” and the “intracellular Ca2+ mobilisation” value [2] is reported as “not”. For the same compound, the “Fraction of internalized molecules” value [3] was 28.1 ± 1.7 %, the “Residency time of internalized molecules” value [3] was 11.3 ± 1.9 min and the “Fraction of internalized molecules” value [4] was 26.3 ± 1.1 %. The “Residency time of internalized molecules” value [4] was 6.5 ± 1.2 min, the DOR internalisation ([5]; MD cells, 0.5 μM MOR agonist, 4.3% without DAMGO addition) was 13.3% and the MOR internalisation ([6]; M cells) was 31.8%. The MOR internalisation ([6]; MD cells) was 51.1%, the “intracellular Ca2+ mobilisation” value ([7]; M-cells) was “induced” and the “intracellular Ca2+ mobilisation” value ([7]; MD-cells, compared with M-cells) was “greatly enhanced”.

With `C=CCN1C[C@H](C)N([C@H](c2ccc(C(=O)N(CC)CC)cc2)c2cccc(OC)c2)C[C@H]1C` [SNC-80] the “Fraction of internalized molecules” value [8] was 61.6 ± 1.7 %, the “Residency time of internalized molecules” value [8] was 10.8 ± 0.9 min and the “Fraction of internalized molecules” value [9] was 56.5 ± 1.9 %. The “Residency time of internalized molecules” value [9] was 8.9 ± 1.0 min, the “DOR internalisation, effect of agonist” value [5] was “induced dramatic DOR internalisation” and the “MOR internalisation, effect of agonist” value ([6]; M cells and MD cells) was “induced”.

In the case of `CN1CC[C@]23c4c5ccc(O)c4O[C@H]2[C@@H](O)C=C[C@H]3[C@H]1C5` [morphine], the “DOR internalisation, effect of agonist” value [5] is reported as “hardly affected”.

For “LSHVDGNQSDPCGLNRTGLGGNDSLCPQTG [Mpep(32-61)MD]”, the DM colocalisation index ([1]; soluble peptides, 10 μM final, added to cells stably co-expressing WT-DOR and MOR) was “largest reductions”.

In the case of “MOR's N-term+TM1: aa53-99 sequence of MOR conjugated with the SNAPf tag, expressed in cells (NDSLCPQTGSPSMVTAITIMALYSIVCVVGLFGNFLVMYVIVRYTKM; cysteine pairing not given here; also: conjugated with SNAPf tag)”, the “DM colocalisation, competition by expressed SNAPf-tagged TM peptides” value [1] is reported as “competes with DM dimers more effectively”.

With “MOR's TM1: MOR's TM1 (aa71-94) conjugated with the SNAPf tag, expressed in cells (IMALYSIVCVVGLFGNFLVMYVIV; also: conjugated with SNAPf tag)” the “DM colocalisation, competition by expressed SNAPf-tagged TM peptides” value [1] was “lowered the DM colocalisation”.

SDTFPSAFPSASANASGSPGARS [Dpep(20-42)DM] was tested, and the “cytotoxicity (LDH)” value [10] was “no toxicity” and the “cytotoxicity (LDH)” value [11] was “little toxicity”.
